Where a SMILES comes first, the peptide text is derived from it. Bridges are numbered along the chain shown (N, C = ends). Where no end group is shown, it is not given here. [ ]: non-standard residue; d: D form. SeMet = C[Se]CC[C@H](N)C(=O)O A value given as a limit tells only on which side of the number the result lay.

Assay [1] has as its target T1, human PAC1 receptor (Homo sapiens, UniProt P41586).
T1 construct: SHSY-5Y (human neuroblastoma cell line) and RG-2 (rat glioma cell line) cells endogenously express human and rat PAC1 receptors, respectively; endogenous in cells; host or cells: SHSY-5Y human neuroblastoma cells
T1 sequence (P41586 21-468): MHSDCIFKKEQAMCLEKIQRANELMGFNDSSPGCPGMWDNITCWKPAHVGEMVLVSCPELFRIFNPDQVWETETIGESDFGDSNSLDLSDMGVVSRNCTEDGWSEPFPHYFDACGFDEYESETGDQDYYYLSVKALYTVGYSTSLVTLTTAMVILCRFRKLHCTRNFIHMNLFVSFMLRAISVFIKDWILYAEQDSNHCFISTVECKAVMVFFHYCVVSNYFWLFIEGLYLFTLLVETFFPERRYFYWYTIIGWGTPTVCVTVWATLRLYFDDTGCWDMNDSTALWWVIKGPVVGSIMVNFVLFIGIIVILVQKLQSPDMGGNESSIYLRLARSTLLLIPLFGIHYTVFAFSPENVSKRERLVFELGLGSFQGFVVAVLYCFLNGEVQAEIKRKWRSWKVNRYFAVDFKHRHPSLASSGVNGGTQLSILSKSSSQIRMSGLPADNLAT
The assay can be described thus: LANCE Ultra cAMP accumulation antagonist assay in SHSY-5Y cells.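 Note: inhibition of cAMP accumulation evoked by PAC1 agonist at its EC80 in SHSY-5Y cells endogenously expressing receptor, 30 min preincubation then 15 min agonist, TR-FRET readout.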 The class given is cell-based.

The target of assay [2] is T2, rat PAC1 receptor (Rattus norvegicus, UniProt P32215).
T2 construct: SHSY-5Y (human neuroblastoma cell line) and RG-2 (rat glioma cell line) cells endogenously express human and rat PAC1 receptors, respectively; endogenous in cells; host or cells: RG-2 rat glioma cells
T2 sequence (P32215 20-523): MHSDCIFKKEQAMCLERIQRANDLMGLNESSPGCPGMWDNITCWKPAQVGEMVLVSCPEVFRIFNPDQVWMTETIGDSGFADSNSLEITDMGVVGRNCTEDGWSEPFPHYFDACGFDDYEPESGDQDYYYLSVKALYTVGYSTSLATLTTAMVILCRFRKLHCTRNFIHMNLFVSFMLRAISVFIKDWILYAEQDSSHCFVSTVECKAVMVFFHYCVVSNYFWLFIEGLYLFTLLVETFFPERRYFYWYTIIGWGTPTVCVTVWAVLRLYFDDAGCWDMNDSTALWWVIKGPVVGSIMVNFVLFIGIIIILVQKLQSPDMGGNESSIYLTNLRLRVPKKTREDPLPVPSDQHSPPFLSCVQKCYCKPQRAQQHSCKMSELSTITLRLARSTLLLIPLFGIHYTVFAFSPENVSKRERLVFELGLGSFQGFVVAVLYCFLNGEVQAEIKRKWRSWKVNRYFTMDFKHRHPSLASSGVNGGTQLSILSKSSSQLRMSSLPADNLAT
The assay can be described thus: LANCE Ultra cAMP accumulation antagonist assay in RG-2 cells.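 Note: RG-2 rat glioma cells endogenously expressing PAC1, test peptide preincubated 30 min, then PAC1 agonist added at its EC80 for 15 min, cAMP accumulation read by LANCE Ultra.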 The class given is cell-based.

Regarding `CC[C@H](C)[C@H](NC(=O)[C@H](C)NC(=O)[C@H](CCCCN)NC(=O)[C@H](CCCNC(=N)N)NC(=O)[C@H](Cc1ccccc1)NC(=O)[C@H](CCC(N)=O)NC(=O)[C@@H]1CSSC[C@H](N)C(=O)N[C@@H](CC(=O)O)C(=O)N[C@@H](C)C(=O)N[C@@H]([C@@H](C)O)C(=O)N1)C(=O)N[C@@H](CC(=O)O)C(=O)N[C@@H](CC(=O)O)C(=O)N[C@H]1CSSC[C@@H](C(=O)N[C@@H](CCSC)C(=O)N[C@@H](CCCCN)C(=O)N[C@@H](CCC(N)=O)C(=O)N[C@@H](CCCCN)C(=O)N[C@@H](CCCCN)C(=O)N[C@@H](CCCCN)C(=O)N[C@@H](CCC(=O)O)C(=O)N[C@@H](Cc2ccccc2)C(=O)N[C@@H](CCCCN)C(N)=O)NC(=O)[C@H](CCC(=O)O)NC(=O)[C@H](CCCCN)NC(=O)[C@H](Cc2ccccc2)NC(=O)[C@H](C(C)C)NC(=O)[C@H](CO)NC(=O)[C@H](CC(N)=O)NC(=O)[C@@H]2CCCN2C(=O)[C@H](C(C)C)NC(=O)[C@H](CC(N)=O)NC(=O)[C@H](CO)NC(=O)[C@H](Cc2c[nH]cn2)NC(=O)[C@H](Cc2c[nH]cn2)NC(=O)[C@H](C)NC(=O)[C@H](CCC(N)=O)NC(=O)[C@H](CCCCN)NC(=O)[C@H](CCC(N)=O)NC1=O` [compound 311] (H-CDATCQFRKAIDDCQKQAHHSNVPNSVFKECMKQKKKEFK-NH2; disulfide 1-5, 14-31), the IC50 in assay [1] is above 100 nM; in assay [2], 1 to 100 nM.

As to `CSCC[C@@H]1NC(=O)[C@H](C)NC(=O)[C@H](C(C)C)NC(=O)[C@H](CCCCN)NC(=O)[C@H](CCCCN)NC(=O)[C@H](Cc2ccc(O)cc2)NC(=O)[C@H](CC(C)C)NC(=O)[C@@H](NC(=O)[C@H](C)NC(=O)[C@@H](NC(=O)[C@H](CC(C)C)NC(=O)CNC(=O)[C@H](CCCCN)NC(=O)[C@H](CCCNC(=N)N)NC(=O)[C@H](Cc2ccc(O)cc2)NC(=O)[C@H](CCC(N)=O)NC(=O)[C@@H]2CSSC[C@H](N)C(=O)N[C@@H](CC(=O)O)C(=O)N[C@@H](C)C(=O)N[C@@H]([C@@H](C)O)C(=O)N2)C(C)C)CSSC[C@@H](C(=O)N[C@@H](CCSC)C(=O)N[C@@H](CCCCN)C(=O)N[C@@H](CCC(N)=O)C(=O)N[C@@H](CCCCN)C(=O)N[C@@H](CCCCN)C(=O)N[C@@H](CCCCN)C(=O)N[C@@H](CCC(=O)O)C(=O)N[C@@H](Cc2c[nH]c3ccccc23)C(N)=O)NC(=O)[C@H](C)NC(=O)[C@H](CCCCN)NC(=O)[C@H](Cc2ccccc2)NC(=O)[C@H](C(C)C)NC(=O)[C@H](CO)NC(=O)[C@H](Cc2ccc(O)cc2)NC(=O)[C@H](CCCNC(=N)N)NC(=O)[C@H](CCCCN)NC(=O)[C@H](CCC(N)=O)NC1=O` [compound 427] (H-CDATCQYRKGLVACLYKKVAMQKRYSVFKACMKQKKKEW-NH2; disulfide 1-5, 14-31), the IC50 in assay [1] and in assay [2] was 1 to 100 nM each time.

“CDATCFFRKVIDDCQKQAHHSNVPGSVFKACMKQLKKRWQAG-NH2 (disulfide 1-5, 14-31) [compound 125]”: the IC50 in assay [1] was above 100 nM; in assay [2], 1 to 100 nM.

Take “CDATCFFRKVIDDCYYRSWHSNVPGSVFKACMKQLKKRWQAG-NH2 (disulfide 1-5, 14-31) [compound 70]”: the IC50 in assay [1] and in assay [2] was 1 to 100 nM in each case.

For “CDATCHFRKAIDDCQKQAHHSNVPGSVFKACMKQHKKRWRAG-NH2 (disulfide 1-5, 14-31) [compound 124]”, the IC50 in assay [1] and in assay [2] was 0.01 to 1 nM throughout.

Consider “CDATCHFRKAIDDCYYRSWHSNVPGSVFKACMKQHKKRWRAG-NH2 (disulfide 1-5, 14-31) [compound 71]”, for which the IC50 in assay [1] and in assay [2] was 0.01 to 1 nM throughout.

For “CDATCQFRKAIDDCAGRASHANVPGSVFKACMKQKKKEWKAGH-NH2 (disulfide 1-5, 14-31) [compound 425]”, the concentration for half-maximal inhibition (IC50) in assay [1] and in assay [2] was 0.01 to 1 nM throughout.

For “CDATCQFRKAIDDCAHRAWHSNVPGSVFKLCMKQKKKEWKAGH-NH2 (disulfide 1-5, 14-31) [compound 424]”, the concentration for half-maximal inhibition (IC50) in assay [1] and in assay [2] was 0.01 to 1 nM each time.

As for “CDATCQFRKAIDDCAKASWHSNVPGSVFKSCMKQKKKEWKAGH-NH2 (disulfide 1-5, 14-31) [compound 1]”, the concentration for half-maximal inhibition (IC50) in assay [1] was 0.01 to 1 nM; in assay [2] it was below 0.01 nM.

In the case of “CDATCQFRKAIDDCAKQAHHANVPGSVFKACMKQKKKEFKAG-NH2 (disulfide 1-5, 14-31) [compound 13]”, the IC50 in assay [1] and in assay [2] was 0.01 to 1 nM each time.

With “CDATCQFRKAIDDCAKQAHHSNVPGSVFKACIKQKKKEFKAG-NH2 (disulfide 1-5, 14-31) [compound 14]”, the half-inhibitory concentration (IC50) in assay [1] and in assay [2] was 0.01 to 1 nM in each case.

“CDATCQFRKAIDDCAKQAHHSNVPGSVFKACMKQKKKEFKAGH (disulfide 1-5, 14-31) [compound 57]”: the IC50 in assay [1] and in assay [2] was 0.01 to 1 nM each time.

“CDATCQFRKAIDDCAKQAHHSNVPGSVFKACMKQKKKEFKAGY (disulfide 1-5, 14-31) [SEQ ID NO 56]”: the IC50 in assay [1] and in assay [2] was 0.01 to 1 nM in each case.

As to “CDATCQFRKAIDDCAKQAHHSNVPGSVFKACMKQKKKEWKAGH (disulfide 1-5, 14-31) [SEQ ID NO 152]”, the half-maximal inhibitory concentration (IC50) in assay [1] and in assay [2] was 0.01 to 1 nM each time.

For the compound “CDATCQFRKAIDDCAKQAHHSNVPGSVFKLCMKQKKKEFKAG-NH2 (disulfide 1-5, 14-31) [compound 18]”, the IC50 was 0.01 to 1 nM in assay [1] and below 0.01 nM in assay [2].

“CDATCQFRKAIDDCAKQAHHSNVPGSVFKSCMKQKKKEFKAG-NH2 (disulfide 1-5, 14-31) [compound 31]”: the half-maximal inhibitory concentration (IC50) in assay [1] is 0.01 to 1 nM; in assay [2] it was below 0.01 nM.

Consider “CDATCQFRKAIDDCARQAHHANVPGSVFKACMKQKKKEWKAGH (disulfide 1-5, 14-31) [compound 8]”, for which the IC50 in assay [1] and in assay [2] was 0.01 to 1 nM throughout.

On to “CDATCQFRKAIDDCARQAHHSNVPGSVFKACFKQKKKEWKAGH (disulfide 1-5, 14-31) [compound 39]”, for which the half-inhibitory concentration (IC50) in assay [1] and in assay [2] was 0.01 to 1 nM throughout.

Take “CDATCQFRKAIDDCARQAHHSNVPGSVFKACIKQKKKEWKAGH (disulfide 1-5, 14-31) [compound 9]”: the IC50 in assay [1] and in assay [2] was 0.01 to 1 nM throughout.

In the case of “CDATCQFRKAIDDCARQAHHSNVPGSVFKACLKQKKKEWKAGH (disulfide 1-5, 14-31) [compound 41]”, the IC50 in assay [1] and in assay [2] was 0.01 to 1 nM throughout.

On to “CDATCQFRKAIDDCARQAHHSNVPGSVFKACMKQKKKEFKAG-NH2 (disulfide 1-5, 14-31) [compound 17]”, for which the concentration for half-maximal inhibition (IC50) in assay [1] is 0.01 to 1 nM; in assay [2], below 0.01 nM.

As for “CDATCQFRKAIDDCARQAHHSNVPGSVFKACMKQKKKEWKAGH-NH2 (disulfide 1-5, 14-31) [compound 2]”, the 50% inhibitory concentration (IC50) in assay [1] and in assay [2] was 0.01 to 1 nM in each case.

As for “CDATCQFRKAIDDCARQAHHSNVPGSVFKACMKQKKKEYKAGH (disulfide 1-5, 14-31) [compound 10]”, the IC50 in assay [1] and in assay [2] was 0.01 to 1 nM each time.

With “CDATCQFRKAIDDCARQAHHSNVPGSVFKACSKQKKKEWKAGH (disulfide 1-5, 14-31) [compound 40]”, the IC50 in assay [1] and in assay [2] was 1 to 100 nM throughout.

Regarding “CDATCQFRKAIDDCARQAHHSNVPGSVFKAC[SeMet]KQKKKEWKAGH (disulfide 1-5, 14-31) [compound 7]”, the 50% inhibitory concentration (IC50) in assay [1] and in assay [2] was 0.01 to 1 nM throughout.

Regarding “CDATCQFRKAIDDCARQAHHSNVPGSVFKLCMKQKKKEWKAGH (disulfide 1-5, 14-31) [compound 23]”, the figures for the IC50 in assay [1] and in assay [2] were 0.01 to 1 nM and below 0.01 nM, respectively.

On to “CDATCQFRKAIDDCARQAHHSNVPGSVFKSCMKQKKKEWKAGH (disulfide 1-5, 14-31) [compound 24]”, for which the concentration for half-maximal inhibition (IC50) in assay [1] and in assay [2] was 0.01 to 1 nM in each case.

Regarding “CDATCQFRKAIDDCARQAHHSNVPGSVWKACMKQKKKEWKAGH (disulfide 1-5, 14-31) [SEQ ID NO 105]”, the IC50 in assay [1] and in assay [2] was 0.01 to 1 nM each time.

With “CDATCQFRKAIDDCARQAHHSQVPGSVFKACMKQKKKEWKAGH (disulfide 1-5, 14-31) [compound 22]”, the IC50 in assay [1] and in assay [2] was 0.01 to 1 nM throughout.

With “CDATCQFRKAIDDCAWFALHSNVPGSVFKACMKQKKKEFKAG-NH2 (disulfide 1-5, 14-31) [compound 91]”, the IC50 in assay [1] and in assay [2] was 0.01 to 1 nM each time.

In the case of “CDATCQFRKAIDDCAWFAMHSNVPGSVFKACMKQKKKEFKAG-NH2 (disulfide 1-5, 14-31) [compound 90]”, the IC50 in assay [1] and in assay [2] was 0.01 to 1 nM in each case.

The values above are taken from US20210395313A1, “PEPTIDE PAC1 ANTAGONISTS” (AMGEN INC., priority 2017, published 2021).
